Laboratory results from patent publication US7074789B2, “Kinase inhibitors” (Amgen Inc., priority 1999, dated 2006).

Key:
Assay type in all cases: biochemical
Lyn = molecular target: T1, Lyn (Homo sapiens, UniProt P07948); test: Kinase inhibition assay (33P transfer), Lyn; conditions: Table 6, Lyn-1 kinase inhibition class
T1 construct: Kinases are expressed as either kinase domains or full length constructs; made in house
Summary of the method: (§1)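 Radiometric format: recombinant tagged kinase (catalytic domain or whole protein, sometimes combined with regulatory polypeptides) phosphorylates immobilised poly(Glu,Tyr) 4:1 or poly(Arg,Ser) 3:1 using [33P]ATP. Wells are washed in 0.5% phosphoric acid, then counted. IC50 is taken where substrate labelling falls by half.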

Kdr = molecular target: T2, Kdr (Homo sapiens, UniProt P35968); test: Kinase inhibition assay (33P transfer), Kdr; conditions: read-out: KDR-1
T2 construct: Kinases are expressed as either kinase domains or full length constructs; made in house
Summary of the method: (§2)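 Radiometric readout: 33P incorporated into surface-bound poly(Glu,Tyr) 4:1 or poly(Arg,Ser) 3:1 is counted by liquid scintillation after a 0.5% phosphoric acid wash. Enzymes were GST or polyHis fusions (kinase domain or full length) from E. coli or High Five insect cells.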

Ret-1 = molecular target: T3, Ret-1 (Homo sapiens, UniProt P07949); test: Kinase inhibition assay (33P transfer), Ret; conditions: Table 6, Ret-1 kinase inhibition class
T3 construct: Kinases are expressed as either kinase domains or full length constructs; made in house

EGFR = molecular target: T4, EGFR (Homo sapiens, UniProt P00533); test: Kinase inhibition assay (33P transfer), EGFR; conditions: Table 2, kinase inhibition class; read-out: EGFR-1
T4 construct: Kinases are expressed as either kinase domains or full length constructs; made in house
Summary of the method: as §1

Fyn = molecular target: T5, Fyn (Homo sapiens, UniProt P06241); test: Kinase inhibition assay (33P transfer), Fyn; conditions: read-out: Fyn-1
T5 construct: Kinases are expressed as either kinase domains or full length constructs; made in house
Summary of the method: as §1

Flt-1 = molecular target: T6, Flt-1 (Homo sapiens, UniProt P17948); test: Kinase inhibition assay (33P transfer), Flt-1
T6 construct: Kinases are expressed as either kinase domains or full length constructs; made in house
Summary of the method: as §1

Lck = molecular target: T7, Lck (Homo sapiens, UniProt P06239); test: Kinase inhibition assay (33P transfer), Lck; conditions: read-out: Lck-1
T7 construct: Kinases are expressed as either kinase domains or full length constructs; made in house
Summary of the method: as §2

Hck-1 = molecular target: T8, Hck-1 (Homo sapiens, UniProt P08631); test: Kinase inhibition assay (33P transfer), Hck; conditions: Table 6, Hck-1 kinase inhibition class
T8 construct: Kinases are expressed as either kinase domains or full length constructs; made in house

Tek = molecular target: T9, Tek (Homo sapiens, UniProt Q02763); test: Kinase inhibition assay (33P transfer), Tek; conditions: read-out: Tek-1
T9 construct: Kinases are expressed as either kinase domains or full length constructs; made in house
Summary of the method: as §1

PDGFRB = molecular target: T10, PDGFRB (Homo sapiens, UniProt P09619); test: Kinase inhibition assay (33P transfer), PDGFRB; conditions: read-out: PDGFRB-1
T10 construct: Kinases are expressed as either kinase domains or full length constructs; made in house

ErbB4 = molecular target: T11, ErbB4 (Homo sapiens, UniProt Q15303); test: Kinase inhibition assay (33P transfer), ErbB4; conditions: read-out: ErbB4-1
T11 construct: Kinases are expressed as either kinase domains or full length constructs; made in house

IGFR-1 = molecular target: T12, IGFR-1 (Homo sapiens, UniProt P08069); test: Kinase inhibition assay, IGFR-1 (Table 2); conditions: Table 2, kinase inhibition class
T12 construct: Kinases are expressed as either kinase domains or full length constructs; made in house

Zap-70 = molecular target: T13, Zap-70 (Homo sapiens, UniProt P43403); test: Kinase inhibition assay (33P transfer), Zap-70; conditions: read-out: Zap-1
T13 construct: Kinases are expressed as either kinase domains or full length constructs; made in house
T13 sequence (P43403 1-619): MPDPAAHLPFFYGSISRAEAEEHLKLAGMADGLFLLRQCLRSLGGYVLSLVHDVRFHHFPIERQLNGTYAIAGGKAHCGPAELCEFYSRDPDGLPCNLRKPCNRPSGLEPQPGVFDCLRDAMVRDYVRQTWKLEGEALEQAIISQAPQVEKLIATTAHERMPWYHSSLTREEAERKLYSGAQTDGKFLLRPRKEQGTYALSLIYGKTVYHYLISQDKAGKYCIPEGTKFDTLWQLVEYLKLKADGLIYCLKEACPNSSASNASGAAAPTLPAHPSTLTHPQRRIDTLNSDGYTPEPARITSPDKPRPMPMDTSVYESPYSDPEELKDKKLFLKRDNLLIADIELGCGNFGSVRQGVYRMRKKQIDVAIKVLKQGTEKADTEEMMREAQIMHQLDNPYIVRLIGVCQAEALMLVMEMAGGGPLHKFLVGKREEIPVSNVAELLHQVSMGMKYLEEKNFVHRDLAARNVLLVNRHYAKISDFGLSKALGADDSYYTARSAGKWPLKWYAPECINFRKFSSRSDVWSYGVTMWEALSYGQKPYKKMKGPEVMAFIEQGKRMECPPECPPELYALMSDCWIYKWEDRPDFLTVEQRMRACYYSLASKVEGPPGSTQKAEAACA
Summary of the method: as §2

AKT = molecular target: T14, AKT (Homo sapiens, UniProt Q9Y243); test: Kinase inhibition assay (33P transfer), AKT; conditions: Table 2, kinase inhibition class; read-out: AKT3-1
T14 construct: Kinases are expressed as either kinase domains or full length constructs; made in house
Summary of the method: as §2

Src = molecular target: T15, Src (Homo sapiens, UniProt P12931); test: Kinase inhibition assay (33P transfer), Src; conditions: Table 6, Src-1 kinase inhibition class
T15 construct: Kinases are expressed as either kinase domains or full length constructs; made in house
Summary of the method: as §1

Itk = molecular target: T16, Itk (Homo sapiens, UniProt Q08881); test: Kinase inhibition assay (33P transfer), Itk; conditions: read-out: Itk-1
T16 construct: Kinases are expressed as either kinase domains or full length constructs; made in house
T16 sequence (Q08881 1-620): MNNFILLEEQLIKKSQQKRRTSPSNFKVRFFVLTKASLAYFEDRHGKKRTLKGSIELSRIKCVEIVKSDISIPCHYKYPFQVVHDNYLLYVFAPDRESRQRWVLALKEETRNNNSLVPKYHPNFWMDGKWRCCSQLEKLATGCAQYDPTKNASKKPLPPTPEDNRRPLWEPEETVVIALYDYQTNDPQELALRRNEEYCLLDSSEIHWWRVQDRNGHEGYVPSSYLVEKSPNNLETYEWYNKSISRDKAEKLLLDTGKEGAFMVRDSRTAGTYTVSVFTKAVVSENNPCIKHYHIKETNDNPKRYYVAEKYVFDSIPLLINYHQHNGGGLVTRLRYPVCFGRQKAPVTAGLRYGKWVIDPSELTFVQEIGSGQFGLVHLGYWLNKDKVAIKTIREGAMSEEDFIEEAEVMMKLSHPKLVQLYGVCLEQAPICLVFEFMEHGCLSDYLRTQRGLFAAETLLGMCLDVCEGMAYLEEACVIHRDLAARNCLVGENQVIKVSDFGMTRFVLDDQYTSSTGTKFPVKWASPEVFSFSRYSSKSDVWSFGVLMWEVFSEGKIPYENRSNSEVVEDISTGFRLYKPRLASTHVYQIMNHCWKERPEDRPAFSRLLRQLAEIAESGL
Summary of the method: as §1

ErbB2 = molecular target: T17, ErbB2 (Homo sapiens, UniProt P04626); test: Kinase inhibition assay (33P transfer), ErbB2; conditions: read-out: ErbB2-2
T17 construct: Kinases are expressed as either kinase domains or full length constructs; made in house
Summary of the method: as §1

FGFR1 = molecular target: T18, FGFR1 (Homo sapiens, UniProt P11362); test: Kinase inhibition assay (33P transfer), FGFR1; conditions: read-out: FGFR1-1
T18 construct: Kinases are expressed as either kinase domains or full length constructs; made in house

c-Met = molecular target: T19, c-Met (Homo sapiens, UniProt P08581); test: Kinase inhibition assay (33P transfer), c-Met; conditions: Table 2, kinase inhibition class; read-out: Met-1
T19 construct: Kinases are expressed as either kinase domains or full length constructs; made in house
Summary of the method: as §1

T9 sequence (Q02763 23-1124, species assumed): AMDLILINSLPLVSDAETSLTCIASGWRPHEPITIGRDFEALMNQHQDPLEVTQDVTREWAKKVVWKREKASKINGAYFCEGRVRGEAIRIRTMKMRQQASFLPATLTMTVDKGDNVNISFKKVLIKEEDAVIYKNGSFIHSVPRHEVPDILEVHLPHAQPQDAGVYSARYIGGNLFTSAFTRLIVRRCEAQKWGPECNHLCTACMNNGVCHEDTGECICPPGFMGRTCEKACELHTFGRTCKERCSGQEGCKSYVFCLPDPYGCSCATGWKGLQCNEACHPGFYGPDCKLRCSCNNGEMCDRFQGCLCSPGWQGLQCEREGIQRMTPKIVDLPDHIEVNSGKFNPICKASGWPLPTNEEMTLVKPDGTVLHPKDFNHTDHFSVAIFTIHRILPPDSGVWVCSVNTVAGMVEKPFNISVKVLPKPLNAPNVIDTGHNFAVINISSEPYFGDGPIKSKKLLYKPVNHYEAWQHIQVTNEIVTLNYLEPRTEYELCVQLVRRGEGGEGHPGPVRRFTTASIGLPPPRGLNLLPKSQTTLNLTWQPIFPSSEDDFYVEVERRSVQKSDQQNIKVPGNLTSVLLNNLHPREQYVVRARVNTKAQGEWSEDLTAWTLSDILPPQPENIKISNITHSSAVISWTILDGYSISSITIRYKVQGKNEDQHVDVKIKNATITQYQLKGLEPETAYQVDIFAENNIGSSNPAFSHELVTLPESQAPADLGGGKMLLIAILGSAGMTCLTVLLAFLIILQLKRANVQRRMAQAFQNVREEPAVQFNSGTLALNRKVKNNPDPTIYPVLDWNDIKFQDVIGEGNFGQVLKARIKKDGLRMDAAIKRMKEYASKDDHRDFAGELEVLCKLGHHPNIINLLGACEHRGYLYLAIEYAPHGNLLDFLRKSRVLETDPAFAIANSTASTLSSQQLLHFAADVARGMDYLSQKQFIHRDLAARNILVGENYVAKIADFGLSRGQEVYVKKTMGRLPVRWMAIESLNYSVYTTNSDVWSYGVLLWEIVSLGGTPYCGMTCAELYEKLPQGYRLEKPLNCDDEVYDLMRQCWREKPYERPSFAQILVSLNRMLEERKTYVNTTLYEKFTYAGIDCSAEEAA
T7 sequence (P06239 whole entry, species assumed, the tested form may be a part): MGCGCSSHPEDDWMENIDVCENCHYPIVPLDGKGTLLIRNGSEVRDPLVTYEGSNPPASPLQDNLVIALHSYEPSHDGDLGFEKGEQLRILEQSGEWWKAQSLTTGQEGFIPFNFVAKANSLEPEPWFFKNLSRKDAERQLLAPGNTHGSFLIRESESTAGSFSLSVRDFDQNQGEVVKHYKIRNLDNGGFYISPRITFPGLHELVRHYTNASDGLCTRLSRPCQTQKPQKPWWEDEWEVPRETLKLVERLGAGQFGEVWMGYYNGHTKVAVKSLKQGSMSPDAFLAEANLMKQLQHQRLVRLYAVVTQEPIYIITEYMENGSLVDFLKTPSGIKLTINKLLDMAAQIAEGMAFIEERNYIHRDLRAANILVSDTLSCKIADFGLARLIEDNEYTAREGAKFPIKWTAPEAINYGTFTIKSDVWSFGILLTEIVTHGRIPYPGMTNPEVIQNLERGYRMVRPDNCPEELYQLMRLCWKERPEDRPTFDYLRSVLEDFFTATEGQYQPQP
T17 sequence (P04626 23-1255, species assumed): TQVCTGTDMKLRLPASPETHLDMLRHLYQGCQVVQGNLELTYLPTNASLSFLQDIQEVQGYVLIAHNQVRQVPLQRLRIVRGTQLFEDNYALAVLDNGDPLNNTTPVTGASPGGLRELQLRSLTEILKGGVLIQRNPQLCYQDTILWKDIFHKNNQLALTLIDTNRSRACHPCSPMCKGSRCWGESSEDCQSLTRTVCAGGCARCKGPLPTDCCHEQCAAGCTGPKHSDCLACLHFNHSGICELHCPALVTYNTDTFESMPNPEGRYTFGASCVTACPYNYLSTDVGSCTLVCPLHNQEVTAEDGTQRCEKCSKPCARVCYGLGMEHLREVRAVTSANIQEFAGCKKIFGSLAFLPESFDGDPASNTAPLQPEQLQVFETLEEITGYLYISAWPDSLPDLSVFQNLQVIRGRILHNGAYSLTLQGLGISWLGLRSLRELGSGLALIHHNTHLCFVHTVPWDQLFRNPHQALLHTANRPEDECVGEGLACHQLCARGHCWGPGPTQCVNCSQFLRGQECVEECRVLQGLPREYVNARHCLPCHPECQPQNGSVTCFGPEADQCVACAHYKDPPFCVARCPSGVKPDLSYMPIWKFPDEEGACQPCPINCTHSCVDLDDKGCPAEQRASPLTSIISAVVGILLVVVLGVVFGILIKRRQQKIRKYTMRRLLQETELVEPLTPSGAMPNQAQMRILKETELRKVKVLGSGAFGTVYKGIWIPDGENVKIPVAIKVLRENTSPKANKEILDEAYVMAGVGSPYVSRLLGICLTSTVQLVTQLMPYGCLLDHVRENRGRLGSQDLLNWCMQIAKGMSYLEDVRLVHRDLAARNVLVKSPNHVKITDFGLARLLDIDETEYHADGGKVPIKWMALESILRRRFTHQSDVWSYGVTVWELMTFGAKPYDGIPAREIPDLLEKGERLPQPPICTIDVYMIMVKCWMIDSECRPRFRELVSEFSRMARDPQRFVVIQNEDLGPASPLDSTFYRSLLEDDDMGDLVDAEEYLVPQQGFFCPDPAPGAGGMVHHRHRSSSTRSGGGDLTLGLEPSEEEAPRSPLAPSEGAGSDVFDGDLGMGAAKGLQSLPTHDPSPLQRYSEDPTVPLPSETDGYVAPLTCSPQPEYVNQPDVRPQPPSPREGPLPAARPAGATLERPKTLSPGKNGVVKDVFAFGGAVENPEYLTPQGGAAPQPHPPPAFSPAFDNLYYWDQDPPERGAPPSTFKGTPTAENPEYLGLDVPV
T11 sequence (Q15303 26-1308, species assumed): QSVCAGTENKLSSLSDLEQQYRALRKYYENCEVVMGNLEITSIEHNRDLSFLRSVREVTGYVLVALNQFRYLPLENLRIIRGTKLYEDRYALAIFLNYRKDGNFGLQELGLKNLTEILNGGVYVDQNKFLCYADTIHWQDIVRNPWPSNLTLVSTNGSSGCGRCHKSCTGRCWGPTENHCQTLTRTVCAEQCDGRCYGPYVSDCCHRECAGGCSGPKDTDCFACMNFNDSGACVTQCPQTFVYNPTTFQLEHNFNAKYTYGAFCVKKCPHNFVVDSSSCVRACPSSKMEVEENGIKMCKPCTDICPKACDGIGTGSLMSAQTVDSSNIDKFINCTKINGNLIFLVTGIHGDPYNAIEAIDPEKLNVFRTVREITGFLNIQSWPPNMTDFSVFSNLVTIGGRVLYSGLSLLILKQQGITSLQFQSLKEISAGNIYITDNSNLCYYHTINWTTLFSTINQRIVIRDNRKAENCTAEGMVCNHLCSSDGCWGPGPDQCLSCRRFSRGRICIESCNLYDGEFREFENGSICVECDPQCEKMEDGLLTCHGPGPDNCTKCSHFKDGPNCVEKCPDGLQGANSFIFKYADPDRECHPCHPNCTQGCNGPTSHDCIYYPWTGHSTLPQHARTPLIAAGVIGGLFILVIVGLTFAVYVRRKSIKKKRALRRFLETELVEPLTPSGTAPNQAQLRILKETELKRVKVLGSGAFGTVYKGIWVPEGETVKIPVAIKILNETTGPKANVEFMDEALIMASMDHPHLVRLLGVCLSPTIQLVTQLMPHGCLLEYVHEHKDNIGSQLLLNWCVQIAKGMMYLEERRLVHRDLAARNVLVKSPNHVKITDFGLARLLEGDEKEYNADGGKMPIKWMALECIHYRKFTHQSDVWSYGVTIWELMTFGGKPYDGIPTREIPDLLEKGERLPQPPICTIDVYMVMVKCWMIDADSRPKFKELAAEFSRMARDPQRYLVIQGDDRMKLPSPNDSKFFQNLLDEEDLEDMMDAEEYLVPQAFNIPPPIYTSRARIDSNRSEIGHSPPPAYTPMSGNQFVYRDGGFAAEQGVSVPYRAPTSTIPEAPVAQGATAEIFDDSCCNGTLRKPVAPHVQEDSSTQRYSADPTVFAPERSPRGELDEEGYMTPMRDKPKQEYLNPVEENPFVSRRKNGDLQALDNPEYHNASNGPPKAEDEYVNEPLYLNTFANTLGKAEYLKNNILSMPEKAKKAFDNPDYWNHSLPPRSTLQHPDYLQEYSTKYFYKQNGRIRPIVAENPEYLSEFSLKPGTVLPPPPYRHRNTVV
T5 sequence (P06241 whole entry, species assumed, the tested form may be a part): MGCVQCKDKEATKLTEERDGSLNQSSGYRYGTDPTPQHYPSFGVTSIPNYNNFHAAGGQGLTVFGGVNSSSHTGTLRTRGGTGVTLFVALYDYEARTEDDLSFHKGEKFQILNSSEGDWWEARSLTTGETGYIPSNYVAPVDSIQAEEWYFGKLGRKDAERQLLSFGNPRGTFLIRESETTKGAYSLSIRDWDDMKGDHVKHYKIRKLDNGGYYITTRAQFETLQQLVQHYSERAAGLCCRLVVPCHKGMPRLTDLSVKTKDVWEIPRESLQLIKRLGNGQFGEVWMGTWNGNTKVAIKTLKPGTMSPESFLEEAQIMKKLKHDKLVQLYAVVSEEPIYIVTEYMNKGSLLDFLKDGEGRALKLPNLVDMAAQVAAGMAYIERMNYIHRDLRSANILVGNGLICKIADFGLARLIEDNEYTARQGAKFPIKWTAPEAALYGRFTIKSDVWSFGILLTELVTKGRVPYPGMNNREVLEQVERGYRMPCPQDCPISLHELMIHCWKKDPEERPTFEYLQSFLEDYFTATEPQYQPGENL

IC50 (Lyn) [µM]	IC50 (Kdr) [µM]	IC50 (Ret-1) [µM]	IC50 (EGFR) [µM]	IC50 (Fyn) [µM]	IC50 (Flt-1) [µM]	IC50 (Lck) [µM]	IC50 (Hck-1) [µM]	IC50 (Tek) [µM]	IC50 (PDGFRB) [µM]	IC50 (ErbB4) [µM]	IC50 (IGFR-1) [µM]	IC50 (Zap-70) [µM]	IC50 (AKT) [µM]	IC50 (Src) [µM]	IC50 (Itk) [µM]	IC50 (ErbB2) [µM]	IC50 (FGFR1) [µM]	IC50 (c-Met) [µM]	Compound
> 9.73	< 0.865	< 0.865	> 9.73	> 9.73	> 9.73	5.19 to 7.57	> 9.73	> 9.73	< 0.865	> 9.73	> 9.73	> 9.73	> 9.73	> 9.73	> 9.73	> 9.73	< 0.865	> 9.73	COc1cc(Nc2ncnc(-c3cccnc3NCc3ccc(F)cc3)n2)cc(OC)c1OC [Compound 1088]
< 1.14	1.14 to 6.87	< 1.14	> 12.9	> 12.9	> 12.9	< 1.14	> 12.9	> 12.9	1.14 to 6.87	> 12.9	> 12.9	> 12.9	> 12.9	> 12.9	6.87 to 10	> 12.9	> 12.9	6.87 to 10	CC(C)Nc1ncccc1-c1ncnc(Nc2ccc(C(N)=O)cc2)n1 [Compound 1084]
> 9.48	< 0.843	7.38 to 9.48	> 9.48	> 9.48	5.06 to 7.38	5.06 to 7.38	> 9.48	7.38 to 9.48	> 9.48	> 9.48	> 9.48	> 9.48	> 9.48	> 9.48	> 9.48	7.38 to 9.48	> 9.48	> 9.48	COc1ccc(Nc2ncccc2-c2ncnc(Nc3cc(OC)c(OC)c(OC)c3)n2)c(C)c1 [Compound 1086]
< 1.02	< 1.02	< 1.02	1.02 to 6.1	1.02 to 6.1	< 1.02	< 1.02	> 11.4	6.1 to 8.9	< 1.02	1.02 to 6.1	1.02 to 6.1	> 11.4	> 11.4	1.02 to 6.1	1.02 to 6.1	1.02 to 6.1	< 1.02	1.02 to 6.1	COc1cc(Nc2ncnc(N3c4ccccc4CC3C)n2)cc(OC)c1OC (centres unmarked) [Compound 610]
0.772 to 4.63	< 0.772	< 0.772	> 8.69	> 8.69	< 0.772	< 0.772	> 8.69	> 8.69	< 0.772	0.772 to 4.63	6.76 to 8.69	> 8.69	> 8.69	> 8.69	> 8.69	> 8.69	< 0.772	6.76 to 8.69	COc1cc(Nc2ncnc(-n3c(NCc4cccc(Cl)c4)nc4ccccc43)n2)cc(OC)c1OC [Compound 949]
